Experimental data as given in US10758551B2, “Methods and compositions for treating pancreatitis” (BAYLOR RESEARCH INSTITUTE, priority 2015, dated 2020).
“Also recorded” adds a separate entry of the source.

How the values were obtained:
[1] = system: cerulein-induced pancreatitis; experiment: Standard chronic pancreatitis model: cerulein 7 hourly IP injections once per week for 4 weeks, WA one hour prior; type: in vivo, C57BL/6 mice
Method: (§1) C57BL/6 mice were injected with 7 hourly IP injections of cerulein at […] once per week for 4 weeks in a standard model for chronic pancreatitis or 6 hourly IP injections of cerulein at […] twice per week for 8 weeks in a stringent model for chronic pancreatitis. WA was administered one hour prior to cerulein beginning in week 1 in the standard model and beginning in week 5 in the stringent model of chronic pancreatits. Incidence of pancreatitis was confirmed by histopathological analysis of pancreas tissue, serum amylase levels, and neutrophil infiltration into pancreatic tissue. Cell proliferation was assessed by Ki67 staining. Pancreatic stone protein REG1α was analyzed by immunohistochemical staining. ImageJ software was used to quantify the area of positively stained cells.
(§2) Chronic pancreatitis (CP) model: Animals were subjected to repeated episodes of acute pancreatitis by supramaximal dose (50 ug/kg) of cerulein administration. Standard Chronic pancreatitis: Mice were fasted overnight prior cerulein injection with ad-libitum supply of water. CP was induced when cerulein was injected i.p. (50 ug/kg) every hour for a total of 7 injection, this injection was repeated once a week for 4 weeks. Control mice were injected with saline as sham treatment. Another group of mice received WA (1.25 mg/kg) 1 hr before the first cerulein injection every week (n=6 mice/group). Mice were then sacrificed and blood and tissue were processed as previously mentioned. Stringent chronic pancreatitis: Mice were fasted overnight prior cerulein injection with ad-libitum supply of water. CP was induced when cerulein was injected i.p. (50 ug/kg) every hour for a total of 6 injection, this injection was repeated twice a week for 8 weeks. WA (0.625 mg/kg) was injected 1 hr prior to first cerulein injection but administration was initiated at week 5 and continued till the end of the experiment. Mice were then sacrificed and tissue was harvested as previously mentioned.
Amylase activity assay: Serum samples obtained from mice after treatment were aliquoted and stored at −80 C until further analysis. Serum was analyzed for amylase activity as per the manufacturer's protocol.
(§3) Histology and Immunohistochemistry: Pancreas tissue was placed in 10% formalin immediately after harvesting and fixed for at least 48 hrs at 4° C. before processing. Tissue samples were paraffin embedded and 5 um sections were made and mounted on slides for staining. Hematoxylin and Eosin (H&E) staining was performed for histopathological evaluation. Sirius Red Staining was performed as per manufacturer's protocol on the sections to evaluate fibrotic change in the tissue section. To perform immunohistochemical staining, the sections were deparaffinized in xylene and rehydrated using ethanol. The slides were incubated in a citrate buffer of pH 6 with at 97° C. for 20 minutes. Following the antigen retrieval process, the slides were carefully washed 3 times for 5 minutes in Tris-buffered saline (TBS) containing 0.025% Triton X-100. The slides were blocked in 1% bovine serum albumin (BSA) in TBS for 2 hours at room temperature to block non-specific binding of the antibodies. Then the slides were incubated overnight with primary antibodies which were diluted in TBS with 1% BSA. The following day, the slides were gently rinsed 3 times for 5 minutes in TBS 0.025% Triton X-100. TRITC or FITC labelled secondary antibodies from Invitrogen were diluted in TBS with 1% BSA. The slides were counterstained with DAPI and mounted for microscopic analysis. ImageJ software was used to perform semi-quantitative analysis of the staining.
(§4) qRT-PCR: Pancreas tissue samples were stored in RNAlater at −80° C. until extraction procedure. Total RNA from the pancreas tissue were extracted using TRIzol reagent. Tissue was homogenized and debris was removed by centrifugation. Chloroform was added to separate the RNA from other biomolecules, and further precipitated using iso-propanol. […]

[2] = system: cerulein-induced pancreatitis; experiment: Stringent chronic pancreatitis model: cerulein 6 hourly IP injections twice per week for 8 weeks, WA from week 5; type: in vivo, C57BL/6 mice; details: for Histopathology (H&E, Sirius red): pancreas damage, acinar cell atrophy, mononuclear cell infiltration, fibrosis: stringent model, cerulein (50 ug/kg) + Withaferin vs cerulein only, FIGS. 3C, 3F, six animals per group
Method: as §1, §2, §3
as §4, with “iso-propanol. RNA pellet was washed with ethanol and quantified using nanodrop 2000. cDNA synthesis was performed using high capacity cDNA reverse transcription kit as per manufacturer's protocol.” for “iso-propanol.”

[3] = system: cerulein induced acute pancreatitis; experiment: Acute pancreatitis model: cerulein 7 hourly IP injections, WA one hour prior; type: in vivo, C57BL/6 mice; details: WA 1.25 mg/kg, n=5/group
Method: Acute pancreatitis (AP) model: Animals were fasted overnight prior to induction of pancreatitis by cerulein, water was given ad-libitum. Mice were injected with Cerulein (50 ug/kg intraperitoneally) or saline every hour for a total of 7 injections and were sacrificed 1 hr after the last injection. WA (1.25 mg/kg) was administered 1 hr before first cerulein injection (n=5 mice/group). […] Pancreas was divided for immunohistochemistry, RNA extraction, protein extraction, immune cell infiltration analysis. Amylase activity assay: Serum samples obtained from mice after treatment were aliquoted and stored at −80 C until further analysis. Serum was analyzed for amylase activity as per the manufacturer's protocol. Immune cell infiltration assay: Cell suspension was prepared from the pancreas tissue after digestion with collagenase (2 mg/mL) at 37° C. for 15 mins. Tissue was further mechanically digested by pipetting several times, the suspension was then washed and filtered to obtain only the single cell fraction. Cell suspension obtained was used for flow cytometric analysis of infiltrated immune cells. 1×10^6 pancreatic cells were labelled with anti-CD45, anti-CD11b, anti-CD14, and anti-Ly6g antibodies. Stained cells were detected using FACScanto II and data were analyzed using FlowJo software. To model acute pancreatitis, C57BL/6 mice were injected with 7 hourly IP injections of cerulein at 50 μg/kg. WA (1.25 mg/kg) was administered one hour prior to cerulein. […] Inflammatory cell infiltration was increased in cerulein-treated mice (FIGS. 18B, 18E, and 18H) compared to controls (FIGS. 18A, 18D, and 18G), but were reduced in cerulein and WA-treated mice (FIGS. 18C, 18F, and 18I) compared to cerulein-treated mice.

NF-κB p65 = NF-κB p65 immunohistochemical staining and protein blot of pancreas of cerulein treated mice; type: in vivo, mouse; details: WA + cerulein vs cerulein treated mice
Method: as §3, with “The slides were counterstained with DAPI and mounted for microscopic analysis.” left out

[4] = system: cerulein-induced pancreatitis; experiment: Standard chronic pancreatitis model: cerulein 7 hourly IP injections once per week for 4 weeks, WA one hour prior; type: in vivo, C57BL/6 mice; details: WA (1 mg/kg) without cerulein; FIG. 2B

Histopathology (H&E) of pancreas, WA alone [4]: normal phenotype
Structure (SMILES): CC1=C(CO)C(=O)O[C@@H]([C@@H](C)[C@H]2CC[C@H]3[C@@H]4C[C@H]5O[C@]56[C@@H](O)C=CC(=O)[C@]6(C)[C@H]4CC[C@]23C)C1 [WA, (4β,5β,6β,22R)-5,6-Epoxy-4,22,27-trihydroxy-1-oxoergosta-2,24-dien-26-oic acid 6-lactone]
Ki67+ area in pancreas (ImageJ, semi-quantitative) ([1]; Standard CP model, FIG. 9A, n=5/group): significantly lower Ki67+ area
Histopathology (H&E): acinar cell atrophy, mononuclear cell infiltration, severity of chronic pancreatitis ([1]; WA + cerulein (50 ug/kg) vs cerulein only, FIG. 2D, six animals per group): significantly reduced acinar cell atrophy and infiltration of mononuclear cells; also recorded: significantly reduced severity of chronic pancreatitis
Serum amylase levels ([1]; WA + cerulein treated mice, cerulein only 952.8±228.8, p=0.045, FIG. 4): 696.3 ± 98.6 nmol/min/mL
Neutrophils migrated into pancreas ([1]; WA treated mice, cerulein only 3,742±1,188, p=0.03, FIGS. 7F, 7G, standard or stringent CP model not stated): 719±276 cells per objective field at a magnification of ×200
REG1α immunohistochemical staining of pancreas ([1]; WA treatment, cerulein only 3,779±448, p=0.003, brought to control levels, model not stated): 544±43
Ki67+ cells in the pancreas ([1]; WA+cerulein, cerulein only 20.0±16.0, FIG. 8, 9A-B (percentage of Ki67+ cells, ImageJ), model not stated): 3.8±2.9
Ly6g+ granulocyte infiltration of pancreas (immunohistochemical staining) ([1]; cerulein + WA vs cerulein, FIG. 7F, n=5/group, model not stated): significantly reduced inflammatory cell infiltration
Serum amylase level compared to cerulein treated mice ([1]; serum at week 3 and week 4, one hour after last injection, FIG. 4, n=6/group): significantly lower serum amylase level
Inflammasome gene expression in pancreas (qRT-PCR) ([1]; standard CP model, HMGB1, Pycard, NLRP3, IL-18, IL-1b, FIG. 13, n=4/group): decreased; also recorded: significantly reduced inflammasome related genes
Pro-inflammatory and pro-apoptotic gene expression in pancreas (qRT-PCR) ([1]; standard CP model, IL-6, TNFα, Nos2, Casp3, Casp7, Bax, FIG. 15, n=4/group): decreased; also recorded: significantly reduced most of these gene signals
ER stress gene expression in pancreas (qRT-PCR) ([1]; standard CP model, Perk, Atf6, Ern1, Eif2a, Atf4, xbp1, Chop, FIG. 11, n=4/group): decreased; also recorded: significantly reduced ER stress gene signals
IL-6 in pancreas tissue lysate (Luminex) ([1]; standard chronic pancreatitis, FIG. 5A, n=4/group): effectively blocked production
MCP-1 in pancreas tissue lysate (Luminex) ([1]; standard chronic pancreatitis, FIG. 5B, n=4/group): effectively blocked production
Ki67+ area in pancreas (ImageJ, semi-quantitative) ([2]; Stringent CP Model, FIG. 9B, n=5/group): significantly lower Ki67+ area
Inflammasome gene expression in pancreas (qRT-PCR) ([2]; stringent CP model, HMGB1, NLRP3, IL-1b, FIG. 14, n=4/group): decreased; also recorded: significantly reduced inflammasome related genes
Pro-inflammatory and pro-apoptotic gene expression in pancreas (qRT-PCR) ([2]; stringent CP model, IL-6, TNFα, Nos2, Bax, FIG. 16, n=4/group): decreased; also recorded: significantly reduced most of these gene signals
ER stress gene expression in pancreas (qRT-PCR) ([2]; stringent CP model, Perk, Ern1, Atf6, Chop, xbp1, eif2a, Atf4, FIG. 12, n=4/group): decreased; also recorded: significantly reduced ER stress gene signals
IL-6 in pancreas tissue lysate (Luminex) ([2]; stringent chronic pancreatitis, FIG. 6A, n=4/group): effectively blocked production
MCP-1 in pancreas tissue lysate (Luminex) ([2]; stringent chronic pancreatitis, FIG. 6B, n=4/group): effectively blocked production
Histopathology (H&E, Sirius red): pancreas damage, acinar cell atrophy, mononuclear cell infiltration, fibrosis [2]: significantly reduced acinar cell atrophy and infiltration of mononuclear cells
Histopathology (H&E, Sirius red): pancreas damage, acinar cell atrophy, mononuclear cell infiltration, fibrosis ([2]; listed as Withaferin): significantly reduced pancreas damage and fibrosis
Inflammatory cell infiltration into pancreas (flow cytometry) ([3]; CD45+CD11b+ myeloid cells, CD45+Ly6g+ granulocytes, CD45+CD14+ monocytes, FIG. 18): reduced percentage of infiltrating cells
Leucocyte (CD45+) infiltration into pancreas (flow cytometry) ([3]; FIG. 19G-J): reduced percentage of infiltrating cells
Serum amylase compared to cerulein treated mice ([3]; serum one hour after last cerulein injection, FIG. 17): significantly decreased; also recorded: significantly reduced serum amylase
NF-κB p65 translocation into the nucleus (immunohistochemical staining of pancreatic tissue) (NF-κB p65; FIG. 10C): significantly prevented NF-κB translocation into the nucleus
NF-κB P65 protein expression in pancreatic lysate (protein blot) (NF-κB p65; FIG. 10D): significantly inhibited overexpression
